Laboratory results published in paper PMC10136135, “Electronic Circular Dichroism Detects Conformational Changes Associated with Proteasome Gating Confirmed Using AFM Imaging” (Biomolecules, 2023).
Where a SMILES comes first, the peptide text is derived from it.

How the values were obtained:
[1] = system: T1, yWT20S / y20S WT (wild type yeast 20S proteasome); test: ECD spectral change (difference spectrum); type: binding, Saccharomyces cerevisiae; details: 25 nM 20S, 150 mM Tris, 100 mM NaCl, pH 7.6, 22 °C; H2T4 1 µM in text, 10 µM in figure legend; allosteric, gate opening
T1 construct: gene SCL1; 20S core particle, 28 subunits (alpha-beta-beta-alpha heptameric rings); with Proteasome subunit beta type-1; Proteasome subunit beta type-2; Proteasome subunit beta type-3; Proteasome subunit beta type-4; Proteasome subunit beta type-5; Proteasome subunit beta type-6; Proteasome subunit beta type-7

[2] = system: T2, h20S (human 20S proteasome); test: AFM imaging of gate conformers; also ECD shift; type: binding; details: 5 mM Tris-HCl pH 7; at least 15 min after addition; control 7 ± 1% open; ECD at 1 µM, 25 nM h20S, pH 7.6, 22 °C; allosteric, gate opening
T2 construct: gene PSMA1; 20S core particle, 28 subunits (alpha-beta-beta-alpha heptameric rings); commercial, Enzo Life Sciences (AFM); H2T4 at the alpha ring gate, Suc-LLVY-MCA at the beta5 (ChT-L) site; with Proteasome subunit beta type-6; Proteasome subunit beta type-7; Proteasome subunit beta type-3; Proteasome subunit beta type-2; Proteasome subunit beta type-1; Proteasome subunit beta type-4

[3] = system: T2, h20S (human 20S proteasome); test: AFM imaging of gate conformers; type: binding; details: 5 mM Tris-HCl pH 7, 1% DMSO; beta5 (ChT-L) site

For `C[n+]1ccc(-c2c3nc(c(-c4cc[n+](C)cc4)c4ccc([nH]4)c(-c4cc[n+](C)cc4)c4nc(c(-c5cc[n+](C)cc5)c5ccc2[nH]5)C=C4)C=C3)cc1` [H2T4, 5,10,15,20-tetrakis-4-N-methylpirydyl porphyrin], the “ECD spectral change (difference spectrum)” value [1] was “the addition of H2T4 induces changes in the ECD spectra of yWT20S” and the “% open conformers at 0.2 μM” value [2] was 22 ± 1.3%.
With `Cc1cc(=O)oc2cc(NC(=O)[C@H](Cc3ccc(O)cc3)NC(=O)[C@@H](NC(=O)[C@H](CC(C)C)NC(=O)[C@H](CC(C)C)NC(=O)CCC(=O)O)C(C)C)ccc12` [SucLLVY-MCA, succinyl-LeuLeuValTyr-7-amino-4-methylcoumarin] (HELM PEPTIDE1{[O=C(O)CCC(=O)[*:2]].L.L.V.Y.[Cc1cc(=O)oc2cc(N[*:1])ccc12]}$$$$V2.0) the “% open conformers at 100 μM” value [3] was “addition of the model substrate or the porphyrin ligand shifted the conformational equilibrium”.
